Drawing on US9428504B2, “7-hydroxy-spiropipiperidine indolinyl antagonists of P2Y1 receptor” (BRISTOL-MYERS SQUIBB COMPANY, priority 2012, dated 2016), this text covers IC50 and Ki for 17 compounds.

The subject of assay [1] is human platelet rich plasma (PRP). The experiment in a line: ADP induced platelet aggregation assay. The settings on record: Homo sapiens, Platelet, read-out: PA IC50 (μM) @ 10 μM ADP, platelet aggregation induced by 10 μM ADP, human PRP.
Procedure: The ability of P2Y1 antagonists covered in the present invention to inhibit platelet aggregation induced by 10 μM ADP was tested using human platelet rich plasma (PRP) as described in Platelet Protocols: Research and Clinical Laboratory Procedures (White, M. M. et al., Academic Press (1999)). Human blood was collected in 30 μM (final concentration in blood) argatroban (GSK) as the anticoagulant at a ratio of 1 ml per 9 ml of blood. The PRP was isolated by centrifugation at 170 g for 12 minutes. The platelet poor plasma (PPP) was used as the blank for optical aggregometry. Compounds of the present invention in DMSO solution was preincubated with 250 μl PRP at 37° C. for 1 minute with stirring speed of 1000 rpm. Aggregation was initiated by addition of 2.5 μl of 1 mM ADP (Chrono-log, Havertown, Pa.) for a final ADP concentration of 10 μM. Platelet aggregation was monitored using Optical Aggregometer (Chrono-log, Havertown, Pa.) and the area under the curve (AUC) at 5 minute was measured. IC50 was calculated using vehicle control as 0% inhibition.
Assay [2] concerns the target cloned human P2Y1 receptors (Homo sapiens (Human), UniProt P47900). The experiment in a line: Binding Assay B: Scintillation Proximity Assay (SPA) for P2Y1 binding. The settings on record: SPA, [33P] 2MeS-ADP displacement; read-out: P2Y1 Ki (nM) using binding assay B. Put shortly:
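Scintillation proximity readout of 0.3 nM [^33P] tracer displacement from receptor membranes (~15 fmol receptor, 1.7 μg protein). Binding ran 1 h at room temperature to completion; plates were then centrifuged and aqueous phase aspirated before counting.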
For orientation: In a scintillation proximity assay essentially only radioactivity close to the scintillant gives light.

Chain of cloned human P2Y1 receptors (P47900 whole entry): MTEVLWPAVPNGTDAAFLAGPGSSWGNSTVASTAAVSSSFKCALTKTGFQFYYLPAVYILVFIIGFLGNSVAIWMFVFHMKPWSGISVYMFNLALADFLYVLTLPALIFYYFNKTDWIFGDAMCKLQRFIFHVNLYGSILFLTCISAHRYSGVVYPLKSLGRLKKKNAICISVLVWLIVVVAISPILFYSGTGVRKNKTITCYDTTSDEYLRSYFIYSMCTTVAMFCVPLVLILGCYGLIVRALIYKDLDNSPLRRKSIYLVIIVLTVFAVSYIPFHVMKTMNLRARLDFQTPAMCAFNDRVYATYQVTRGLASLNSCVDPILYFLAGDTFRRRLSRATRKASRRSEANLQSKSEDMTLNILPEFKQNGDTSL

What is called IC50 is the concentration needed to halve the response being measured. The term Ki denotes a dissociation constant, usually derived from enzyme kinetics or from competition with a known ligand. As for `CC(C)(C)CN1CCC2(CC1)CN(c1ccccc1NC(=O)Nc1ccc(OC(F)(F)F)cc1)c1c(O)cc(F)c(-c3nc4cc(Cl)ccc4s3)c12` [Example 137, 1-(2-(4-(5-Chlorobenzo[d]thiazol-2-yl)-5-fluoro-7-hydroxy-1′-neopentylspiro[indoline-3,4′-piperidin]-1-yl)phenyl)-3-(4-(trifluoromethoxy)phenyl)urea], the half-inhibitory concentration (IC50) in assay [1] was 0.4 µM. Also, the Ki in assay [2] was 44.7 nM.

Turning to `CC(C)(C)CN1CCC2(CC1)CN(c1ccccc1NC(=O)Nc1nc3ccc(F)cc3s1)c1c(O)ccc(-c3nc4cc(F)ccc4s3)c12` [Example 138, 1-(6-Cluorobenzo[d]thiazol-2-yl)-3-(2-(4-(5-fluorobenzo[d]thiazol-2-yl)-7-hydroxy-1′-neopentylspiro[indoline-3,4′-piperidin]-1-yl)phenyl)urea], in assay [1], the concentration for half-maximal inhibition (IC50) turned out to be 0.2 µM. In assay [2], the Ki was 24.6 nM.

Consider `CC(C)(C)CN1CCC2(CC1)CN(c1ccccc1NC(=O)Nc1nc3ccc(F)cc3s1)c1c(O)cc(F)c(-c3nc4cc(Cl)ccc4s3)c12` [Example 140, 1-(2-(4-(5-Chlorobenzo[d]thiazol-2-yl)-5-fluoro-7-hydroxy-1′-neopentylspiro[indoline-3,4′-piperidin]-1-yl)phenyl)-3-(6-fluorobenzo[d]thiazol-2-yl)urea], for which, in assay [1], the IC50 was determined as 0.6 µM. For the same compound, in assay [2], the Ki was found to be 52.4 nM.

Consider `CC(C)(C)CN1CCC2(CC1)CN(c1ccccc1NC(=O)Nc1nc3ccc(Cl)cc3s1)c1c(O)cc(F)c(-c3nc4cc(Cl)ccc4s3)c12` [Example 141, 1-(6-Chlorobenzo[d]thiazol-2-yl)-3-(2-(4-(5-chlorobenzo[d]thiazol-2-yl)-5-fluoro-7-hydroxy-1′-neopentylspiro[indoline-3,4′-piperidin]-1-yl)phenyl)urea], for which, in assay [1], the IC50 amounted to 0.9 µM. In assay [2], the Ki came out at 33.9 nM.

As for `CC(C)(C)CN1CCC2(CC1)CN(c1ccccc1NC(=O)Nc1nc3ccc(Cl)nc3s1)c1c(O)ccc(-c3nc4ccc(F)cc4s3)c12` [Example 144, 1-(5-Chlorothiazolo[5,4-b]pyridin-2-yl)-3-(2-(4-(6-fluorobenzo[d]thiazol-2-yl)-7-hydroxy-1′-neopentylspiro[indoline-3,4′-piperidin]-1-yl)phenyl)urea], in assay [1], the IC50 amounted to 0.7 µM. Also, the Ki in assay [2] was 13 nM.

On to `CC(C)(C)CN1CCC2(CC1)CN(c1ccccc1NC(=O)Nc1nc3ccc(Cl)cc3s1)c1c(O)ccc(-c3nc4ccc(F)cc4s3)c12` [Example 145, 1-(6-Chlorobenzo[d]thiazol-2-yl)-3-(2-(4-(6-fluorobenzo[d]thiazol-2-yl)-7-hydroxy-1′-neopentylspiro[indoline-3,4′-piperidin]-1-yl)phenyl)urea], for which the IC50 in assay [1] stood at 0.6 µM. In addition, the Ki in assay [2] stood at 18.4 nM.

As to `COc1ccc2nc(NC(=O)Nc3ccccc3N3CC4(CCN(CC(C)(C)C)CC4)c4c(-c5nc6cc(F)ccc6s5)ccc(O)c43)sc2c1` [Example 146, 1-(2-(4-(5-Fluorobenzo[d]thiazol-2-yl)-7-hydroxy-1′-neopentylspiro[indoline-3,4′-piperidin]-1-yl)phenyl)-3-(6-methoxybenzo[d]thiazol-2-yl)urea], the IC50 in assay [1] is 0.6 µM. Also, the Ki in assay [2] was 11.2 nM.

Turning to `CC(C)(C)CN1CCC2(CC1)CN(c1ccccc1NC(=O)Nc1ccc(OC(F)(F)F)cc1)c1c(O)cc(F)c(-c3nc4ccc(F)cc4s3)c12` [Example 147, 1-(2-(5-Fluoro-4-(6-fluorobenzo[d]thiazol-2-yl)-7-hydroxy-1′-neopentylspiro[indoline-3,4′-piperidin]-1-yl)phenyl)-3-(4-(trifluoromethoxy)phenyl)urea], in assay [1], the IC50 was found to be 0.5 µM. Also, in assay [2], the Ki worked out at 14.8 nM.

Consider `CC(C)(C)CN1CCC2(CC1)CN(c1ccccc1NC(=O)Nc1nc3ccc(Cl)cc3s1)c1c(O)ccc(-c3nc4cc(Cl)ccc4s3)c12` [Example 149, 1-(6-Chlorobenzo[d]thiazol-2-yl)-3-(2-(4-(5-chlorobenzo[d]thiazol-2-yl)-7-hydroxy-1′-neopentylspiro[indoline-3,4′-piperidin]-1-yl)phenyl)urea], for which, in assay [1], the IC50 amounted to 0.9 µM. For the same compound, in assay [2], the inhibition constant Ki was 26.8 nM.

`COc1ccc2nc(NC(=O)Nc3ccccc3N3CC4(CCN(CC(C)(C)C)CC4)c4c(-c5nc6cc(Cl)ccc6s5)ccc(O)c43)sc2c1` [Example 150, 1-(2-(4-(5-Chlorobenzo[d]thiazol-2-yl)-7-hydroxy-1′-neopentylspiro[indoline-3,4′-piperidin]-1-yl)phenyl)-3-(6-methoxybenzo[d]thiazol-2-yl)urea]: the IC50 in assay [1] stood at 0.9 µM. In addition, the Ki in assay [2] was 33.4 nM.

Regarding `CC(C)(C)CN1CCC2(CC1)CN(c1ccccc1NC(=O)Nc1nc3ccc(Cl)nc3s1)c1c(O)cc(F)c(-c3ccc(F)cc3)c12` [Example 152], the IC50 in assay [1] is 0.2 µM. In assay [2], the Ki came out at 10.2 nM.

On to `CC(C)(C)CN1CCC2(CC1)CN(c1ccccc1NC(=O)Nc1ccc(OC(F)(F)F)cc1)c1c(O)c(F)cc(-c3ccc(F)cc3)c12` [Example 153, 1-(2-(6-Fluoro-4-(4-fluorophenyl)-7-hydroxy-1′-neopentylspiro[indoline-3,4′-piperidin]-1-yl)phenyl)-3-(4-(trifluoromethoxy)phenyl)urea], for which the concentration for half-maximal inhibition (IC50) in assay [1] stood at 0.4 µM. The inhibitory constant (Ki) in assay [2] was found to be 11.5 nM.

In the case of `CC(C)(C)CN1CCC2(CC1)CN(c1ccccc1NC(=O)Nc1ccc(OC(F)(F)F)cc1)c1c(O)c(F)cc(-c3ccc(C(F)(F)F)cc3)c12` [Example 154, 1-(2-(6-Fluoro-7-hydroxy-1′-neopentyl-4-(4-(trifluoromethyl)phenyl)spiro[indoline-3,4′-piperidine]-1-yl)phenyl)-3-(4-(trifluoromethoxy)phenyl)urea], the IC50 in assay [1] worked out at 0.4 µM. The Ki in assay [2] is 38.8 nM.

With `CC(C)(C)CN1CCC2(CC1)CN(c1ccccc1NC(=O)Nc1ccc(OC(F)(F)F)cc1)c1c(O)cc(F)c(-c3ccc(F)cc3)c12` [Example 155, 1-(2-(5-Fluoro-4-(4-fluorophenyl)-7-hydroxy-1′-neopentylspiro[indoline-3,4′-piperidin]-1-yl)phenyl)-3-(4-(trifluoromethoxy)phenyl)urea], the IC50 in assay [1] is 0.1 µM. Further, the Ki in assay [2] stood at 22.5 nM.

Take `CC(C)(C)CN1CCC2(CC1)CN(c1ccccc1NC(=O)Nc1ccc(OC(F)(F)F)cc1)c1c(O)c(F)cc(-c3ccc(Cl)cc3)c12` [Example 156, 1-(2-(4-(4-Chlorophenyl)-6-fluoro-7-hydroxy-1′-neopentylspiro[indoline-3,4′-piperidin]-1-yl)phenyl)-3-(4-(trifluoromethoxy)phenyl)urea]: in assay [1], the IC50 is 0.2 µM. Also, the Ki in assay [2] is 20.2 nM.

Consider `CC(C)(C)CN1CCC2(CC1)CN(c1ccccc1NC(=O)Nc1ccc(OC(F)(F)F)cc1)c1c(O)cc(F)c(-c3ccc(Cl)cc3)c12` [Example 157, 1-(2-(4-(4-Chlorophenyl)-5-fluoro-7-hydroxy-1′-neopentylspiro[indoline-3,4′-piperidin]-1-yl)phenyl)-3-(4-(trifluoromethoxy)phenyl)urea], for which the 50% inhibitory concentration (IC50) in assay [1] is 0.2 µM. Also, the Ki in assay [2] was 12.3 nM.

As for `CC(C)(C)CN1CCC2(CC1)CN(c1ccccc1NC(=O)Nc1csc(C(F)(F)F)n1)c1c(O)cc(F)c(-c3ccc(Cl)cc3)c12` [Example 158, 1-(2-(4-(4-Chlorophenyl)-5-fluoro-7-hydroxy-1′-neopentylspiro[indoline-3,4′-piperidin]-1-yl)phenyl)-3-(2-(trifluoromethyl)thiazol-4-yl)urea], the IC50 in assay [1] amounted to 0.3 µM. The Ki in assay [2] was determined as 15.4 nM.
